The values that follow come from patent US9211270B2, “Method for improving the efficacy of curcuminoids and their analogs” (ASAC Compañía de Biotecnología e Investigación, S.A., priority 2007, dated 2015).

Assay [1] concerns A431 cells (human epidermal carcinoma). In words: Inhibition of tumor growth in mice, intraperitoneal Curcumin with visible light. Type of assay: in vivo, athymic nude mice (NMRI). The following applies: day 12, Curcumin 50 mg/kg per day i.p. + visible light 5500 lx 20 minutes.
Method: 5*10^6 A431 cells (human epidermal carcinoma) were injected subcutaneously into the left and right flanks of athymic nude mice (NMRI) (5-6 weeks old, 20-24 g). The mice were fed in pathogen-free conditions. The animals were fed ad libitum with sterilized food. The animals were sterilized with ketamine/xylazine.
The irradiation device was 10 Phillips TLK 40W/03 lamps (60 cm length*4 cm diameter), at a distance of 45 cm. The emission range of the lamps was between 400-550 nm with a maximum at 420 nm.
Tumor size was measured initially and after 10-12 days; afterwards tumor volumes and weights were determined twice a week. At the end of the experiment (29 days), the animals were anesthetized and sacrificed.
Another assay concerns psoriasis. The following applies: 12 week studies; cited from earlier work.

For the compound `COc1cc(/C=C/C(=O)CC(=O)/C=C/c2ccc(O)c(OC)c2)ccc1O` [Curcumin, curcumin (diferuloylmethane)], the “reduction of average tumor volume in comparison to control mice” value in assay [1] came to 70%. With Efalizumab, the “patients who reached a score of PASI-75” value in the assay on psoriasis is 22-35%.
